Values of other authors, collected in patent US20040005347A1, “Composition comprising cocoa” (N. V. NUTRICIA, priority 2001, published 2004).

How the values were obtained:
[1] = system: serotonin levels; conditions: in vitro
[2] = system: PMS related symptoms; conditions: supplementation

| SMILES | serotonin levels [1] | PMS related symptoms, especially those related to mood [2] |
| --- | --- | --- |
| Cn1c(=O)c2c(ncn2C)n(C)c1=O [caffeine] | increase | – |
| [Mg+2] [Magnesium] | – | improves |
